These results are taken from patent EP4810052A2, “HCRHR2 SELECTIVE POLYPEPTIDES” (Gubra A/S, priority 2023, dated 2026).

Read-outs that look alike come from different tables or passages of the source. Starred links: 1 amine or outer side, 2 acyl side, 3 side chain; linkers in the order of their positions; H or OH if unused. Non-standard residues stand in square brackets, D forms with d. Residues, ends and D or L forms follow the SMILES beside them. Groups on a side chain read outwards from the residue. *: point of attachment. C20 diacid = O=C(O)CCCCCCCCCCCCCCCCCCC(=O)*; γGlu = O=C(O)[C@H](CCC(=O)[*:2])N[*:1]; NMeI = CC[C@H](C)[C@H](NC)C(=O)O; Nle = CCCC[C@H](N)C(=O)O; AEEA = NCCOCCOCC(=O)O; Aib = CC(C)(N)C(=O)O

Data set [1] addresses T1, hCRHR2 (Homo sapiens, UniProt Q13324).
T1 sequence (Q13324 1-411): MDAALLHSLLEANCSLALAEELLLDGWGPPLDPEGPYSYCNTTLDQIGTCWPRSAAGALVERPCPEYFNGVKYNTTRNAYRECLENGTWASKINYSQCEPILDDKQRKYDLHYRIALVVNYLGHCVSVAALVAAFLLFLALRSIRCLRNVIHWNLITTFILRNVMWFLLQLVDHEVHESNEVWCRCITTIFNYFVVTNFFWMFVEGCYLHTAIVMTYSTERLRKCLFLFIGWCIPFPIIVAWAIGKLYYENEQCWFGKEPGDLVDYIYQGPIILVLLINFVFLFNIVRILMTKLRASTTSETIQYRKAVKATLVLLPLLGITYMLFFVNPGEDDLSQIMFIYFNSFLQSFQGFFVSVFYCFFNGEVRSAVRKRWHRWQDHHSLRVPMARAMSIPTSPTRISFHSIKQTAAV
As to the kind of experiment: HTRF cAMP assay, determination of hCRHR2 potency (peptide libraries 5 conc., purified peptides 11 conc.). It counts as cell-based. As to conditions: for Selectivity ratio (hCRHR1/ hCRHR2): Table 5. In outline: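 Frozen stocks of hCRHR2-expressing CHO-K1 cells, thawed just before testing, received peptide agonists in suspension; cAMP quantified by competitive HTRF immunoassay, with curves fitted by nonlinear regression (variable slope) for EC50.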
On the technique in general: Time-resolved FRET reads energy transfer from a long-lived donor to a nearby acceptor.

The target of data set [2] is T2, hCRHR1 (Homo sapiens, UniProt P34998).
T2 sequence (P34998 24-415): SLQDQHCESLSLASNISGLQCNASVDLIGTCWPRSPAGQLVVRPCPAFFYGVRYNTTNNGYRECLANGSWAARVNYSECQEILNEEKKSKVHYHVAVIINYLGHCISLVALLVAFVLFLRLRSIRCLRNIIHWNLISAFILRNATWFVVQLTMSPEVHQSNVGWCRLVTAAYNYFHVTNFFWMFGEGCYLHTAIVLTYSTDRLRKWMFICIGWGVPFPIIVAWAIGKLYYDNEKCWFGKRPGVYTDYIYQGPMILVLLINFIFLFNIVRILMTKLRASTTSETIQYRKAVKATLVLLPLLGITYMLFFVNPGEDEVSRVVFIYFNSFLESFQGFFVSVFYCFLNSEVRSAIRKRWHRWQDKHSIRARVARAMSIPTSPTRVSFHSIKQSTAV
The data set is described as follows: HTRF cAMP assay, determination of hCRHR1 potency (peptide libraries 5 conc., purified peptides 11 conc.). It counts as cell-based. In outline: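 Cellular cAMP was read by time-resolved FRET between d2-labelled cAMP and cryptate anti-cAMP antibody. The cells were freshly thawed suspension CHO-K1 cells stably expressing human CRHR1.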

A short description of data set [3]: Thioflavin T fibril formation assay of purified peptides. It is filed as physicochemical. Further details: key: Amyloid fibril formation detected by an increase in ThT fluorescence was denoted with "Yes"; samples without increasing ThT fluorescence hence not forming amyloid fibrils were denoted "No". In outline:
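Fibril formation read as rising ThT emission at 480 nm (450 nm excitation), 4 µM ThT, over 96 h at 40°C with alternating 5-min rest and 700 rpm shaking cycles, in triplicate. Samples were 200 µM compound in 50 mM phosphate at various pH values, or co-formulated at 200 µM in semaglutide product at pH 7.4.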

The nature of data set [4]: PK in rats. It is filed as in vivo. Further details: T½ / MRT: unit not given here. As to conditions: for half-life: read-out: T½ (converted). The procedure, abridged: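 Lean male Sprague Dawley rats (n = 3 per group) got a two-peptide combination at 50 nmol/kg IV and SC. Plasma was sampled from 0.17 to 96 h post dose and analysed by LC-MSMS. PK parameters came from non-compartmental analysis.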

The mark [5] stands for this setting: Table 4, library peptides having X^38 = Nle, read-out: hCRHR2 pEC50 (converted).
[6] abbreviates: Table 5, purified peptides, read-out: hCRHR2 EC50.
Setting [7] is: Table 4, library peptides having X^38 = Nle, read-out: hCRHR1 pEC50 (converted).
Setting [8] is: Table 5, purified peptides, read-out: hCRHR1 EC50.
Setting [9] is: male, Sprague Dawley (RJHan:SD), in vivo, iv, Rat, 50 nmol/kg i.v.
The mark [10] stands for this setting: male, Sprague Dawley (RJHan:SD), in vivo, sc, Rat, 50 nmol/kg s.c.

For `CCCC[C@H](NC(=O)[C@@H](NC(=O)[C@H](CCC(=O)O)NC(=O)[C@H](C)NC(=O)[C@H](CC(N)=O)NC(=O)C(C)(C)NC(=O)[C@H](CCCCNC(=O)COCCOCCNC(=O)COCCOCCNC(=O)CC[C@H](NC(=O)CC[C@H](NC(=O)CCCCCCCCCCCCCCCCCCC(=O)O)C(=O)O)C(=O)O)NC(=O)[C@H](C)NC(=O)[C@H](CCC(N)=O)NC(=O)[C@H](CCC(=O)O)NC(=O)[C@H](CCCNC(=N)N)NC(=O)[C@H](C)NC(=O)[C@H](C)NC(=O)[C@H](CCCNC(=N)N)NC(=O)[C@H](C)NC(=O)[C@H](CCCNC(=N)N)NC(=O)[C@H](C)NC(=O)[C@H](CCC(N)=O)NC(=O)[C@H](CO)NC(=O)[C@H](CC(C)C)NC(=O)[C@H](CC(C)C)NC(=O)[C@@H](NC(=O)[C@H](CCC(N)=O)NC(=O)[C@H](CC(C)C)NC(=O)[C@H](CC(C)C)NC(=O)CNC(=O)[C@@H](NC(=O)[C@@H]1CCCN1C(=O)[C@@H](NC(=O)[C@H](CC(=O)O)NC(=O)[C@H](CC(C)C)NC(=O)[C@H](CO)NC(=O)[C@H](CC(C)C)NC(=O)[C@@H](NC(=O)[C@@H](NC)[C@@H](C)CC)C(C)C)C(C)C)[C@@H](C)CC)[C@@H](C)CC)[C@@H](C)CC)C(=O)N[C@@H](C)C(=O)N[C@@H](CCC(=O)O)C(=O)N[C@H](C(N)=O)C(C)C` [compound 132] (H-[NMeI]VLSLDVPIGLLQILLSQARARAAREQAK([AEEA-AEEA-γGlu-γGlu-C20 diacid])[Aib]NAEI[Nle]AEV-NH2), the EC50 in data set [1] (setting [5]) is 0.02 nM; in data set [1] (setting [6]), 0.77 nM; in data set [2] (setting [7]) it was 794 nM; in data set [2] (setting [8]), more than 5000 nM. In addition, in data set [1], the “Selectivity ratio (hCRHR1/ hCRHR2)” value is more than 6494. For the same compound, in data set [3] (pH 7.5), the “Fibrillation (pH 7.5)” value is “No”. In addition, the MRT in data set [4] (Rat) worked out at 6.2. Further, the T½ in data set [4] (Rat) is on record as 4.8. Also, the “Solubility pH 7.5, target conc. =10 mg/mL (measured mg/mL)” value (pH 7.5) is given as 11 mg/mL.

For orientation: clearance means the rate of elimination divided by the concentration. In general, Cmax refers to the highest concentration seen after dosing. By Tmax is commonly meant the time from dosing to the highest level. The term bioavailability denotes dose-corrected exposure relative to a reference, in per cent. Consider `CCCC[C@H](NC(=O)[C@@H](NC(=O)[C@H](CCC(=O)O)NC(=O)C(C)(C)NC(=O)[C@H](CC(N)=O)NC(=O)[C@@H](NC(=O)[C@H](CCCCNC(=O)COCCOCCNC(=O)COCCOCCNC(=O)CC[C@H](NC(=O)CC[C@H](NC(=O)CCCCCCCCCCCCCCCCCCC(=O)O)C(=O)O)C(=O)O)NC(=O)[C@H](C)NC(=O)[C@H](CCC(N)=O)NC(=O)[C@H](CCC(=O)O)NC(=O)[C@H](CCCNC(=N)N)NC(=O)[C@H](C)NC(=O)[C@H](C)NC(=O)[C@H](CCCNC(=N)N)NC(=O)[C@H](C)NC(=O)[C@H](CCCNC(=N)N)NC(=O)[C@H](C)NC(=O)[C@H](CCC(N)=O)NC(=O)[C@H](CO)NC(=O)[C@H](CC(C)C)NC(=O)[C@H](CC(C)C)NC(=O)[C@@H](NC(=O)[C@H](CCC(N)=O)NC(=O)[C@H](CC(C)C)NC(=O)[C@H](CC(C)C)NC(=O)CNC(=O)[C@@H](NC(=O)[C@@H]1CCCN1C(=O)[C@@H](NC(=O)[C@H](CC(=O)O)NC(=O)[C@H](CC(C)C)NC(=O)[C@H](CO)NC(=O)[C@H](CC(C)C)NC(=O)[C@@H](NC(=O)[C@@H](NC)[C@@H](C)CC)C(C)C)C(C)C)[C@@H](C)CC)[C@@H](C)CC)[C@@H](C)O)[C@@H](C)CC)C(=O)N[C@@H](C)C(=O)N[C@@H](CCC(=O)O)C(=O)N[C@H](C(N)=O)C(C)C` [SEQ ID NO: 215] (H-[NMeI]VLSLDVPIGLLQILLSQARARAAREQAK([AEEA-AEEA-γGlu-γGlu-C20 diacid])TN[Aib]EI[Nle]AEV-NH2), for which the EC50 in data set [1] (setting [5]) is 0.0251 nM. Moreover, the “Selectivity ratio (hCRHR1/ hCRHR2)” value in data set [1] is on record as more than 5747. In data set [1] (setting [6]), the EC50 stood at 0.87 nM. Further, in data set [2] (setting [7]), the EC50 was 3160 nM. In addition, the EC50 in data set [2] (setting [8]) was more than 5000 nM. Moreover, the EC50 in data set [2] (stable cell system, Table 10, read-out: Stable EC50 (nM) hCRHR 1) is more than 5000 nM. For the same compound, the “Amyloid fibril formation + semaglutide (Ozempic®), pH 7.4” value in data set [3] (200 µM compound dissolved in semaglutide drug product, pH 7.4, listed as None = drug product alone) is recorded as “No”. Also, in data set [3] (200 µM in 50 mM phosphate buffer, pH 7.0), the “Amyloid fibril formation pH 7.0” value is reported as “No”. In data set [3] (200 µM in 50 mM phosphate buffer, pH 7.5), the “Amyloid fibril formation pH 7.5” value is “No”. For the same compound, the “Amyloid fibril formation pH 8.0” value in data set [3] (200 µM in 50 mM phosphate buffer, pH 8.0) is on record as “No”. In data set [3] (pH 7.5), the “Fibrillation (pH 7.5)” value is recorded as “No”. Moreover, in data set [4] (Rat), the MRT amounted to 6.7 and the T½ was 5.7. Also, in data set [4] (setting [9]), the clearance is 0.2 mL/min/kg and the half-life was 5.7 h. In data set [4] (setting [10]), the Cmax came to 42 nM, the Tmax stood at 24 h and the half-life was 6.1 h. In data set [4] (male, Sprague Dawley, rat, in vivo, sc), the bioavailability stood at 28%. In addition, the “Solubility pH 6.5 (mg/ml)” value (pH 6.5) is recorded as 19.6 mg/ml. Further, where the note is “pH 7”, the “Solubility pH 7.0 (mg/mL)” value came out at 20.6 mg/mL. Moreover, under “pH 7.5”, the “Solubility pH 7.5 (mg/mL)” value is 17.7 mg/mL; the “Solubility pH 7.5 + phenol (mg/mL)” value was determined as 18.0 mg/mL; the “Solubility pH 7.5, target conc. =10 mg/mL (measured mg/mL)” value came to 12 mg/mL.

`CCCC[C@H](NC(=O)[C@@H](NC(=O)[C@H](CCC(=O)O)NC(=O)[C@H](C)NC(=O)[C@H](CC(N)=O)NC(=O)[C@H](CCC(=O)O)NC(=O)[C@H](CCCCNC(=O)COCCOCCNC(=O)COCCOCCNC(=O)CC[C@H](NC(=O)CC[C@H](NC(=O)CCCCCCCCCCCCCCCCCCC(=O)O)C(=O)O)C(=O)O)NC(=O)[C@H](C)NC(=O)[C@H](CCC(N)=O)NC(=O)[C@H](CCC(=O)O)NC(=O)[C@H](CCCNC(=N)N)NC(=O)[C@H](C)NC(=O)[C@H](C)NC(=O)[C@H](CCCNC(=N)N)NC(=O)[C@H](C)NC(=O)[C@H](CCCNC(=N)N)NC(=O)[C@H](C)NC(=O)[C@H](CCC(N)=O)NC(=O)[C@H](CO)NC(=O)[C@H](CC(C)C)NC(=O)[C@H](CC(C)C)NC(=O)[C@@H](NC(=O)[C@H](CCC(N)=O)NC(=O)[C@H](CC(C)C)NC(=O)[C@H](CC(C)C)NC(=O)CNC(=O)[C@@H](NC(=O)[C@@H]1CCCN1C(=O)[C@@H](NC(=O)[C@H](CC(=O)O)NC(=O)[C@H](CC(C)C)NC(=O)[C@H](CO)NC(=O)[C@H](CC(C)C)NC(=O)[C@@H](NC(=O)[C@@H](NC)[C@@H](C)CC)C(C)C)C(C)C)[C@@H](C)CC)[C@@H](C)CC)[C@@H](C)CC)C(=O)N[C@@H](C)C(=O)N[C@@H](CCC(=O)O)C(=O)N[C@H](C(N)=O)C(C)C` [compound 101] (H-[NMeI]VLSLDVPIGLLQILLSQARARAAREQAK([AEEA-AEEA-γGlu-γGlu-C20 diacid])ENAEI[Nle]AEV-NH2): the “Selectivity ratio (hCRHR1/ hCRHR2)” value in data set [1] came to 5435. Besides, in data set [1] (setting [6]), the EC50 was 0.92 nM. Also, the EC50 in data set [2] (setting [8]) is more than 5000 nM. Besides, in data set [3] (pH 7.5), the “Fibrillation (pH 7.5)” value is given as “No”. Moreover, in data set [4] (Rat), the MRT was determined as 6.8 and the T½ is given as 6.5. Besides, where the note is “pH 7.5”, the “Solubility pH 7.5, target conc. =10 mg/mL (measured mg/mL)” value is 11 mg/mL.
